Source: publication PMC10303900, “Discovery of a New Chalcone-Trimethoxycinnamide Hybrid with Antimitotic Effect: Design, Synthesis, and Structure—Activity Relationship Studies” (Pharmaceuticals, 2023)
Where two headings read alike, the source gives them in different places.

How the values were obtained:
HCT116 (HCT116 p53+/+) = test: SRB growth inhibition assay, colorectal carcinoma cells; assay type: cell-based; conditions: Homo sapiens, HCT-116
Protocol: (§1) A sulforhodamine B (SRB) assay was performed to evaluate the in vitro growth inhibitory activity of all synthesized hybrids, as well as intermediates in the human tumor cell lines of melanoma (A375-C5), breast adenocarcinoma (MCF-7), and colorectal carcinoma (HCT116), as well as on the non-tumor Human Pulmonary Alveolar Epithelial cell line (HPAEpiC). The concentration inducing 50% cell growth inhibition (GI50), was calculated. […] The overall results prompt us to further investigate the mechanism behind the cytotoxic activities of compounds 6, 7, and 13 in colorectal tumor cells. Moreover, in silico studies were performed, aiming to screen for drug-likeness.
(§2) A375-C5 (melanoma) and MCF-7 (breast adenocarcinoma) cell lines were obtained from the European Collection of Cell Culture, UK, and were grown in RPMI-1640 medium (Roswell Park Memorial Institute, Biochrom, Cambridge, UK) with 5% inactivated FBS (fetal bovine serum, Biochrom). HCT-116 (colon adenocarcinoma) cells were grown in DMEM medium (Dulbecco’s Modified Eagle’s, Biochrom) with 5% inactivated FBS. The non-tumor human pulmonary alveolar epithelial cells (HPAEpiC) were obtained from ScienCell Research Laboratories and grown in DMEM medium supplemented with 10% FBS and 1% non-essential amino acids (Sigma-Aldrich Co., Saint Louis, MO, USA). All cell lines were maintained in a humidified incubator (Hera Cell, Heraeus, Hanau, Germany) at 37 °C and with 5% CO2, and cell viability was regularly monitored using the exclusion trypan blue dye.
(§3) A total of 5.0 × 10^4 A375-C5, MCF-7, and HCT-116 cells, or 6.0 × 10^4 HPAEpiC cells were seeded in 96-well plates and incubated at 37 °C and 5% CO2 to allow for cell attachment. After 24 h, cells were treated with two-fold serial dilutions of test compounds (0–150 µM), or with DMSO as the compound solvent. In parallel, cells in a time-zero (T0) plate, without treatment, were fixed with 50% (m/v) trichloroacetic acid (TCA, Merck Millipore, Darmstadt, Germany), for 1 h at 4 °C, and then washed with distilled water and left to dry. Forty-eight hours after compound treatment, cells were fixed with 50% TCA and stained with SRB (Sigma-Aldrich Co., Ltd., Gillingham, UK) for 30 min at room temperature, followed by 5 rounds of washing with 1% (v/v) acetic acid (Merck Milli-pore, Darmstadt, Germany). SRB–protein complexes were then solubilized with […] Tris buffer (Sigma-Aldrich Co., Ltd., Gillingham, UK) for 30 min, and the absorbance was measured at 515 nm in a microplate reader (Biotek Synergy 2, BioTek Instruments, Inc., Winooski, VT, USA). A dose-response curve was obtained for each cell line, and the concentration that caused 50% cell growth inhibition (GI50) was calculated.

A375-C5 = test: Sulforhodamine B (SRB) growth inhibition assay, melanoma cells; assay type: cell-based; conditions: Homo sapiens, 48 h
Protocol: as §1, §2, §3

MCF-7 = test: SRB growth inhibition assay, breast adenocarcinoma cells; assay type: cell-based; conditions: Homo sapiens, MCF7, 48 h
Protocol: as §1, §2, §3

HPAEpiC = test: SRB growth inhibition assay, non-tumor pulmonary alveolar epithelial cells; assay type: cell-based; conditions: Homo sapiens, Epithelial cell, 48 h
Protocol: as §1, §2, §3

[1] = SRB, 48 h, read-out: GI50 HCT116

| SMILES | melting point [°C] | GI50 (HCT116 (HCT116 p53+/+); [1]) [µM] | GI50 (A375-C5) [µM] | GI50 (MCF-7) [µM] | GI50 (HCT116 (HCT116 p53+/+); Table 2, 48 h, read-out: GI50 HCT116 p53+/+) [µM] | GI50 (HPAEpiC) [µM] |
| --- | --- | --- | --- | --- | --- | --- |
| CCCc1c(OCCNC(=O)/C=C/c2cc(OC)c(OC)c(OC)c2)ccc2c(=O)cc(-c3cc(OC)c(OC)c(OC)c3)oc12 [Compound 15, (E)-N-(2-((4-oxo-8-propyl-2-(3,4,5-trimethoxyphenyl)-4H-chromen-7-yl)oxy)ethyl)-3-(3,4,5-trimethoxyphenyl)acrylamide] | 198 to 199 | > 75 | > 75 | > 75 |  | > 75 |
| CCCc1c(OCCNC(=O)c2cc(OC)c(OC)c(OC)c2)ccc2c(=O)cc(-c3cc(OC)c(OC)c(OC)c3)oc12 [Compound 16, 3,4,5-trimethoxy-N-(2-((4-oxo-8-propyl-2-(3,4,5-trimethoxyphenyl)-4H-chromen-7-yl)oxy)ethyl)benzamide] | 196 to 199 | 28.6 ± 5.05 | > 75 | > 75 |  | > 75 |
| COc1cccc2c1C(=O)c1c(O)c3c(c(O)c1C2=O)C[C@@](O)(C(=O)CO)C[C@@H]3O[C@H]1C[C@H](N)[C@H](O)[C@H](C)O1 [Doxorubicin, reference compound] |  | 0.085 ± 0.008 | 0.028 ± 0.002 | 0.083 ± 0.003 |  | 0.091 ± 0.013 |

More lines, main results first:

| melting point [°C] | GI50 (HCT116 (HCT116 p53+/+); [1]) [µM] | GI50 (A375-C5) [µM] | GI50 (MCF-7) [µM] | GI50 (HCT116 (HCT116 p53+/+); Table 2, 48 h, read-out: GI50 HCT116 p53+/+) [µM] | SMILES | GI50 (HPAEpiC) [µM] |
| --- | --- | --- | --- | --- | --- | --- |
| 195 to 197 | 24.7 ± 3.04 | > 75 | > 75 |  | CCCc1c(OCC(=O)Nc2cc(OC)c(OC)c(OC)c2)ccc2c(=O)cc(-c3cc(OC)c(OC)c(OC)c3)oc12 [Compound 17, 2-((4-oxo-8-Propyl-2-(3,4,5-trimethoxyphenyl)-4H-chromen-7-yl)oxy)-N-(3,4,5-trimethoxyphenyl)acetamide] | > 75 |
|  | > 75 | > 75 | > 75 |  | CCCc1c(OCC(=O)O)ccc2c(=O)cc(-c3cc(OC)c(OC)c(OC)c3)oc12 [Compound 18, 2-((4-oxo-8-propyl-2-(3,4,5-trimethoxyphenyl)-4H-chromen-7-yl)oxy)acetic acid] | > 75 |
|  |  |  |  | 0.71 | COc1cc([C@@H]2c3cc4c(cc3[C@@H](O[C@@H]3O[C@@H]5CO[C@@H](C)O[C@H]5[C@H](O)[C@H]3O)[C@H]3COC(=O)[C@H]23)OCO4)cc(OC)c1O [Etoposide, reference compound] |  |
